Square brackets hold non-standard residues; d marks the D form. Ends that are not written are not given here.

The test system of data set [1] is PC3 tumors. Put plainly: Peptide accumulation within the tumor mass, fluorescence microscopy. The format is in vivo, SCID/beige mice. As to conditions: intraperitoneally, one hour after administration. The protocol:
To determine whether the survivin peptidomimetic accumulates intracellularly in vivo, animals carrying flank PC3 tumors were injected intraperitoneally with saline, or the cell-permeable retro-inverso K79-L87 survivin peptide P3. One hour after administration, the animals were sacrificed, and the tumors were carefully excised and analyzed for peptide accumulation within the tumor mass by fluorescence microscopy.

Data set [2] relates to normal lung fibroblast LU18 cells. Put plainly: Trypan blue exclusion in normal cells. The format is cell-based. As to conditions: 150 μM, 24 hours.
The target in data set [3] is T1, Hsp 27 (Homo sapiens, UniProt P04792).
T1 construct: used to fractionate Raji cell extracts; endogenous in cells; host or cells: Raji B lymphoma cells
The data set is described as follows: Affinity chromatography of Raji cell extracts on Survivin peptide column. The format is binding. From the text: (§1) A Survivin Ile^74-Leu^87 peptide (SEQ ID NO:4) containing a binding site for Hsp90 was immobilized onto a Sulfolink™ Coupling Gel (Pierce, Rockport, Ill.), and used to fractionate Raji cell extracts. Proteins were identified in the flow trough (FT) or eluate (E) by Western blotting with the indicated antibodies. Hsp90 and Hsp70 clearly bound the Survivin peptide including residues Ile^74-Leu^87. The anti-Hsp70 antibodies were obtained from Abcam, Cambridge, Mass. (cat. No. ab6535).

Data set [4] concerns Hsp90. The description is as above. The format is binding. As to conditions: eluate by Western blotting.
Source text: as §1
(Immunoblotting shows a protein as a band on a membrane.)

For data set [5], the system named is Hsp70. Described as above. As to conditions: eluate by Western blotting. The format is binding.
Source text: as §1

The subject of data set [6] is HeLa, MDA-MB231, MCF-7, PANC-1 tumor cell lines. The data set is described as follows: MTT cell viability with retro-inverso peptides. The format is cell-based. To be noted: increasing concentrations, 24 hours. As to the method:
For determination of apoptosis by hypodiploid DNA content, various tumor cell lines were incubated with increasing concentrations of the cell permeable control scrambled (SEQ ID NO:25) or Survivin peptide (SEQ ID NO:19), harvested after 24 hours (floaters plus attached cells) fixed in 70% ethanol, and stained with 10 μg/ml propidium iodide plus 100 μg/ml RNAse A and 0.05% Triton™ X-100 in PBS, pH 7.4. Cultures were analyzed for DNA content by flow cytometry. For colorimetric quantification of cell viability, an MTT assay was used. […] Decrease in cell viability was analyzed for loss of colorimetric absorption at OD405.
To increase the stability in vivo of the cell permeable Survivin K79-L87 sequence, we synthesized peptidomimetic variants in which the cell penetrating Antennapedia sequence and the Survivin active sequence K79-L87 were synthesized using D-amino acid ([…]) and in the reverse order (inverso sequence). […] To test the ability of the retro-inverso cell permeable sequences to induce apoptosis in cancer cells, a panel of tumor cell lines were analyzed by the cell viability MTT assay after incubation with the indicated increasing concentrations of the P3 (Survivin) or P4 (control) retro-inverso cell permeable peptides.

Data set [7] relates to HCT116, HeLa, MCF-7, PANC-1, PC3 tumor cells. The data set is described as follows: Trypan blue exclusion in tumor cell lines. To be noted: 150 μM, 24 hours. The format is cell-based. The protocol: To study the specificity of the retro-inverso P3 and P4 sequences described in Example 17, we incubated a variety of tumor cell lines with the cell permeable retro-inverso P3 and P4 peptides (150 μM), and stained the cultures after 24 hours by trypan blue (Sigma) exclusion. Cells that fail to exclude the blue dye were cells that lost cell viability and plasma membrane integrity.

T1 sequence (P04792 whole entry): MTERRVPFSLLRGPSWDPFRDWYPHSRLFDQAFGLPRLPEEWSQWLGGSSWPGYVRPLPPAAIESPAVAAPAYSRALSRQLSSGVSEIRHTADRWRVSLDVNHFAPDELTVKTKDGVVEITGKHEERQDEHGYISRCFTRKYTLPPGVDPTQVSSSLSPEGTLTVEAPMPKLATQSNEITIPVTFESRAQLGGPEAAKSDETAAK

Regarding `CSCC[C@@H](NC(=O)[C@@H](CCCCN)NC(=O)[C@@H](Cc1c[nH]c2ccccc12)NC(=O)[C@@H](CCCCN)NC(=O)[C@@H](CCCCN)NC(=O)CCCCCNC(=O)CCCC[C@@H]1SC[C@@H]2NC(=O)N[C@@H]21)C(=O)N[C@H](CCCNC(=N)N)C(=O)N[C@H](CCCNC(=N)N)C(=O)N[C@H](CC(N)=O)C(=O)N[C@H](CCC(N)=O)C(=O)N[C@H](Cc1ccccc1)C(=O)N[C@H](Cc1c[nH]c2ccccc12)C(=O)N[C@@H](C(=O)N[C@H](CCCCN)C(=O)N[C@@H](C(=O)N[C@H](CCC(N)=O)C(=O)N[C@H](CCCNC(=N)N)C(=O)N[C@H](CC(C)C)C(=O)N[C@H](Cc1ccccc1)C(=O)N[C@H](C)C(=O)N[C@H](CS)C(=O)NCC(=O)N[C@H](CO)C(=O)N[C@H](CO)C(=O)N[C@H](Cc1c[nH]cn1)C(=O)N[C@H](CCCCN)C(N)=O)C(C)C)C(C)C` [P3], in data set [1], the “intracellular accumulation in tumor cells” value is reported as “showed intracellular fluorescence”. For the same compound, the “viability of normal cells (trypan blue exclusion)” value in data set [2] is “neither the Survivin P3 nor the control P4 peptide resulted in decreased viability”.
In the case of IDDHKKHSSGCAFL [SEQ ID NO:4], the “Hsp 27 binding to peptide column” value in data set [3] is reported as “did not bind”. For the same compound, the “Hsp90 binding to peptide column” value in data set [4] is reported as “clearly bound”. Also, the “Hsp70 binding to peptide column” value in data set [5] is on record as “clearly bound”.
On to “KKWKMRRNQFWVIWQRGHSFCALKS-CONH2 ([dK][dK][dW][dK][dM][dR][dR][dN][dQ][dF][dW][dV][dI][dW][dQ][dR]G[dH][dS][dF][dC][dA][dL][dK][dS]-NH2; also: retro-inverso) [P4, retro-inverso control scrambled peptide]”, for which the “cell viability (MTT)” value in data set [6] is recorded as “no decrease in cell viability”. Besides, the “tumor cell viability (trypan blue exclusion)” value in data set [7] was “did not reduce tumor cell viability”.

The values are drawn from patent publication US8420777B2, “Compounds that inhibit Hsp90 protein-protein interactions with IAP proteins” (University of Massachusetts, priority 2004, dated 2013).
